Assay results published in patent publication US10765625B2, “Knottin-drug conjugates and methods of using the same” (THE BOARD OF TRUSTEES OF THE LELAND STANFORD JUNIOR …, priority 2016, dated 2020).

Columns and labels:
Type in all cases: cell-based
[1] = tested on: A2780 ovarian cancer cells; assay: Cell proliferation, CCK-8 colorimetric assay; conditions: 4 d after treatment, read-out: ED50 (nM), cell growth inhibition
Procedure: (§1) U87MG, and PANC-1 cells were grown in Dulbecco's Modified Eagle Medium (DMEM) with 10% fetal bovine serum (FBS) and 1% penicillin/streptomycin. MDA-MB-468 cells were grown in DMEM and Ham's F-12 medium (DMEM/F12) with 10% FBS and 1% penicillin/streptomycin. A2780 and BxPC3 cells were grown in Roswell Park Memorial Institute medium (RPMI) 1640+L-glutamine, with 10% FBS and 1% penicillin/streptomycin. D270 cells were grown in MEM (Richter's modification, no phenol red) with 10% FBS and 0.1% Gentamicin. Unless otherwise specified, cells were incubated at 37° C., 5% CO2. Flow cytometry was performed using an EMD Millpore Guava EasyCyte 8HT flow cytometer and the resulting data were evaluated using FlowJo software provided by TreeStar, Inc. Cell proliferation was measured using the Dojindo Cell Counting Kit-8 by replacing the media in each well with 100 μL of media containing 10% WST-8. After incubation for 1 h at 37° C., absorbance, A, at 450 nm was measured with a BioTek Synergy H4 microtiter plate reader. The background signal of CCK-8 alone was subtracted from all samples. Cell proliferation was then expressed as a percentage of absorbance relative to the control of untreated cells (Equation 2). Nonlinear regression analysis was performed using GraphPad Prism.
(§2) Having identified KDC 5d as a potent inhibitor of U87MG cells with desirable payload-release properties, its efficacy against a variety of other cell lines in comparison with Gemcitabine (3) was next tested. Cells were seeded in a 96-well plate at a density of 2,500 cells per well and grown overnight at 37° C., 5% CO2 in the media described in Section 1.3. Cells were subsequently treated with 100 μL of fresh media, containing 50 nM of 3 or 5d. Cells were incubated at 37° C., 5% CO2 for 4 d. Cell proliferation was measured using the Cell Counting Kit-8 by replacing the media in each well with 100 μL of media containing 10% WST-8. After incubation for 1 h at 37° C., absorbance at 450 nm was measured with a Synergy H4 microtiter plate reader. Cell proliferation was measured according to the method described in Section 1.3. Error bars represent the standard deviation of experiments performed in triplicate.

[2] = tested on: PANC-1 pancreatic cancer cells; assay: Cell proliferation, CCK-8 colorimetric assay; conditions: 4 d after treatment, read-out: ED50 (nM), cell growth inhibition
Procedure: as §1, §2

D270 glioblastoma cells = assay: Cell proliferation, CCK-8 colorimetric assay; conditions: 4 d after treatment, read-out: ED50 (nM), cell growth inhibition
Procedure: as §1, §2

[3] = tested on: BxPC3 pancreatic cancer cells; assay: Cell proliferation, CCK-8 colorimetric assay; conditions: 4 d after treatment, read-out: ED50 (nM), cell growth inhibition
Procedure: as §1, §2

[4] = tested on: MDA-MB-468 breast cancer cells; assay: Cell proliferation, CCK-8 colorimetric assay; conditions: 4 d after treatment, read-out: ED50 (nM), cell growth inhibition
Procedure: as §1, §2

U87MG cells [5] = assay: Integrin-blocking competition: cell proliferation (CCK-8) after pre-treatment with EETI-2.5F (1); conditions: 1 μM 1, 3 h pre-treatment and co-treatment
Procedure: as §1
One possible explanation for the apparent hENT1-independence of 5d is that its route of internalization could be integrin-mediated. The role of integrin-binding in the biological potency and hENT1-independence of 5d was determined. A competition experiment was carried out in which U87MG cells were pre-treated with unconjugated EETI-2.5F (1) in order to block integrins on the cell surface. The role of integrin-binding was studied by measuring the proliferation of U87MG cells that had been pre-treated with EETI-2.5F (1) when exposed to increasing doses of 3 and KDCs 5a, 5c, and 5d. […] Media used to prepare varying concentrations of drug, protein, or protein-drug conjugate also contained 1 μM of 1. Prior to treatment, cells were incubated for 3 h at 37° C., 5% CO2 with fresh media containing 1 μM 1. After this pre-treatment, cells were incubated with varying concentrations of 5a, 5c, or 5d for 24 h and then media was replaced with fresh media and cells were incubated for an additional 48 h. Cell proliferation was measured using the Cell Counting Kit-8 by replacing the media in each well with 100 μL of media containing 10% WST-8. After incubation for 1 h at 37° C., absorbance at 450 nm was measured with a Synergy H4 microtiter plate reader. Cell proliferation was measured according to the method described in Section 1.3. Error bars represent the standard deviation of experiments performed in triplicate.

U87MG cells [6] = assay: Premature drug release study: cell proliferation (CCK-8) with hENT1 inhibitor 6 co-administered; conditions: for Fold Increase in ED50 in U87MG Cells: ED50 with 6 / ED50 without 6, minus 1
Procedure: as §1
The relative extent of premature drug-release in the cases of 5a, 5c, and 5d was next determined in order to identify the linker best-suited for delivering the drug payload intracellularly. An established technique for blocking the cellular uptake of Gemcitabine by using S (4-nitrobenzyl)-6-thioinosine (6) was employed, which is known to inhibit human equilibrative nucleoside transporters, such as hENT1. Because hENT1 is a critical regulator of the cellular internalization of Gemcitabine, it was reasoned that by inhibiting its activity with 6, the cytotoxic effect of any drug payload that was released in the extracellular environment could be diminished. It was anticipated that this would allow the distinction between KDCs that were potent due to the undesirable release of Gemcitabine outside of the cell from those that released Gemcitabine intracellularly (FIG. 6). The extent of premature drug release in the extracellular environment was studied by inhibiting activity of nucleoside transporters (such as hENT1) of U87MG cells through the use of the hENT1 inhibitor S-(4-nitrobenzyl)-6-thioinosine (6). […] In a similar fashion, it was expected that for KDCs which released a significant amount of the drug payload in the extracellular environment, an increase in the concentration of 6 should result in a concomitant increase in ED50 value.
Media used to prepare varying concentrations of drug, protein, or protein-drug conjugate also contained varying concentrations of the hENT1 inhibitor, 6. Additionally, prior to treatment, cell were incubated at 37° C., 5% CO2 with fresh media containing the varying concentrations of 6 for 2 h. Cell proliferation was measured using the Cell Counting Kit-8 by replacing the media in each well with 100 μL of media containing 10% WST-8. After incubation for 1 h at 37° C., absorbance at 450 nm was measured with a Synergy H4 microtiter plate reader. ED50 values were determined by nonlinear regression analysis. Example dose-response curves for 3 (FIG. 7) and 5d (FIG. 8) are provided. Cell proliferation was measured according to the method described in Section 1.3. Error bars represent the standard deviation of experiments performed in triplicate.
These values were normalized as Fold Increase in ED50 (defined in Equation 2) by dividing the ED50 of each drug when 6 was co-administered at concentration=C by the ED50 of that same drug when no 6 was added, then subtracting 1 (thus, a “0-fold increase” would mean no increase, while a “1-fold increase” would mean that the ED50 value had doubled). Fold Increase in ED50 for each drug at each concentration of 6 is provided in Table 5, and these values were used to generate FIG. 9.

CC(C)C[C@@H]1NC(=O)[C@@H]2CSSC[C@@H](C(=O)NCC(=O)O)NC(=O)[C@H](Cc3ccccc3)NC(=O)CNC(=O)[C@H](CC(N)=O)NC(=O)[C@@H]3CCCN3C(=O)CNC(=O)[C@@H]3CSSC[C@H](NC(=O)[C@H]([C@@H](C)O)NC(=O)[C@H](CC(C)C)NC(=O)[C@@H]4CCCN4C(=O)[C@@H]4CCCN4C(=O)[C@H](CC(N)=O)NC(=O)[C@H](CC(=O)O)NC(=O)CNC(=O)[C@H](CCCNC(=N)N)NC(=O)[C@@H]4CCCN4C(=O)[C@H](CCCNC(=N)N)NC(=O)[C@@H]4CCCN4C(=O)[C@@H](NC(=O)CN)CSSC[C@H](NC(=O)CNC(=O)[C@H](C)NC1=O)C(=O)N[C@@H](C(C)C)C(=O)N3)C(=O)N[C@@H](CCCn1cc(CCC(=O)N[C@H](C(=O)N[C@@H](C)C(=O)Nc3ccc(COC(=O)Nc4ccn([C@@H]5O[C@H](CO)[C@@H](O)C5(F)F)c(=O)n4)cc3)C(C)C)nn1)C(=O)N[C@@H](CCC(N)=O)C(=O)N[C@@H](CC(=O)O)C(=O)N[C@@H](CO)C(=O)N[C@@H](CC(=O)O)C(=O)N2 [5d]
EC50 [1]: 2.3 ± 0.5 nM
EC50 [2]: 2.1 ± 0.2 nM
EC50 (D270 glioblastoma cells): 7.9 ± 0.8 nM
EC50 [3]: 1.8 ± 0.8 nM
EC50 [4]: 0.6 ± 0.1 nM
Effect of integrin blocking by pre-treatment with 1 on potency (in words) (U87MG cells [5]): abolishes the potency
Effect of hENT1 inhibitor 6 on potency (ED50) (in words) (U87MG cells [6]; U87MG cells, increasing concentrations of 6 up to 10 μM): no effect on the potency
Fold Increase in ED50 in U87MG Cells (U87MG cells [6]; [6] = 0 nM): 0
Fold Increase in ED50 in U87MG Cells (U87MG cells [6]; [6] = 1 nM): −0.3 ± 0.3
Fold Increase in ED50 in U87MG Cells (U87MG cells [6]; [6] = 10 nM): −0.6 ± 0.6
Fold Increase in ED50 in U87MG Cells (U87MG cells [6]; [6] = 100 nM): 0.6 ± 1.0
Fold Increase in ED50 in U87MG Cells (U87MG cells [6]; [6] = 1000 nM): 1.2 ± 1.2
Fold Increase in ED50 in U87MG Cells (U87MG cells [6]; [6] = 10000 nM): 8.1 ± 5.4
